In PubChem BioAssay (NCI):
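How tested: cells in 96-well plates exposed to compound for 48 hours at five concentrations. Definition used: TGI = concentration required for complete inhibition of growth.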

Legend:
Assay in all cases: NCI anticancer screen, dose series, 48 h
NCI/ADR-RES ovarian = tested on: NCI/ADR-RES ovarian
MDA-MB-231 breast = tested on: MDA-MB-231 breast
SF-268 CNS = tested on: SF-268 CNS
SR leukemia = tested on: SR leukemia
IGROV1 ovarian = tested on: IGROV1 ovarian
HCT-15 colon = tested on: HCT-15 colon
K-562 leukemia = tested on: K-562 leukemia
CAKI-1 renal = tested on: CAKI-1 renal

With CC(=O)Nc1nc(Cl)cc(NCC2(CO)CCC2)n1 the TGI (NCI/ADR-RES ovarian) was > 100 µM, the TGI (MDA-MB-231 breast) was > 100 µM and the TGI (SF-268 CNS) was > 100 µM. The TGI (SR leukemia) was > 100 µM, the TGI (IGROV1 ovarian) was > 100 µM and the TGI (HCT-15 colon) was > 100 µM. For the same molecule, the TGI (K-562 leukemia) was > 100 µM and the TGI (CAKI-1 renal) was > 100 µM.

In the case of Cn1c2ccccc2c2ccc3c(c21)C(=O)c1ccc2c4ccccc4n(C)c2c1C3=O, the TGI (NCI/ADR-RES ovarian) is reported as > 100 µM, the TGI (MDA-MB-231 breast) is reported as > 100 µM and the TGI (SF-268 CNS) is reported as > 100 µM. For the same molecule, the TGI (SR leukemia) was > 100 µM, the TGI (IGROV1 ovarian) was > 100 µM and the TGI (HCT-15 colon) was > 100 µM. For the same molecule, the TGI (K-562 leukemia) was > 100 µM and the TGI (CAKI-1 renal) was > 100 µM.

Cc1c(C)n(-c2ccccc2)c2nc(S(C)=O)nc(S(C)=O)c12 (configuration not stated) was tested, and the TGI (NCI/ADR-RES ovarian) was 59.2 µM, the TGI (MDA-MB-231 breast) was 17.3 µM and the TGI (SF-268 CNS) was 22.8 µM. It also gave a TGI (SR leukemia) of 2.82 µM, a TGI (IGROV1 ovarian) of 17.2 µM and a TGI (HCT-15 colon) of 17.8 µM. For the same molecule, the TGI (K-562 leukemia) was 4.28 µM and the TGI (CAKI-1 renal) was 2.66 µM.

With CN(C)CCn1c(=O)c2ccc(NCCCN(C)CCCNc3ccc4c(=O)n(CCN(C)C)c(=O)n5c6ccc(O)cc6c(=O)c3c45)c3c(=O)c4cc(O)ccc4n(c1=O)c23 the TGI (NCI/ADR-RES ovarian) was > 46.3 µM, the TGI (MDA-MB-231 breast) was 0.177 µM and the TGI (SF-268 CNS) was 1.04 µM. For the same molecule, the TGI (SR leukemia) was 0.642 µM, the TGI (IGROV1 ovarian) was 0.392 µM and the TGI (HCT-15 colon) was 3.41 µM. The TGI (K-562 leukemia) was 0.255 µM and the TGI (CAKI-1 renal) was 2.23 µM.

In the case of COC(=O)[C@]1(C)CCC[C@@]2(C)C1CC[C@]13C=C(C(C)C)[C@H](CC21)CC3(Cl)C#N (some centres not stated), the TGI (NCI/ADR-RES ovarian) is reported as > 100 µM, the TGI (MDA-MB-231 breast) is reported as > 100 µM and the TGI (SF-268 CNS) is reported as > 100 µM. For the same molecule, the TGI (SR leukemia) was > 100 µM, the TGI (IGROV1 ovarian) was > 100 µM and the TGI (HCT-15 colon) was > 100 µM. For the same molecule, the TGI (K-562 leukemia) was > 100 µM and the TGI (CAKI-1 renal) was > 100 µM.

For O=c1c2c3c(sc2[nH]c(=S)n1-c1ccccc1)CCCc1ccc([N+](=O)[O-])cc1-3, the TGI (NCI/ADR-RES ovarian) was 74 µM, the TGI (MDA-MB-231 breast) was > 100 µM and the TGI (SF-268 CNS) was > 100 µM. For the same molecule, the TGI (SR leukemia) was 85.8 µM, the TGI (IGROV1 ovarian) was 27.3 µM and the TGI (HCT-15 colon) was 72.7 µM. The TGI (K-562 leukemia) was 35.3 µM and the TGI (CAKI-1 renal) was > 100 µM.

Work on COC(=O)/C=C(/C=C1/C(C#N)=C(N)N(c2ccc(Cl)cc2)C1(C)/C(=C\C(=O)OC)C(=O)OC)C(=O)OC (configuration not stated) yielded a TGI (NCI/ADR-RES ovarian) of 36.9 µM, a TGI (MDA-MB-231 breast) of 53.4 µM and a TGI (SF-268 CNS) of 47.8 µM. For the same molecule, the TGI (SR leukemia) was > 100 µM, the TGI (IGROV1 ovarian) was 60.2 µM and the TGI (HCT-15 colon) was 50.2 µM. For the same molecule, the TGI (K-562 leukemia) was > 100 µM and the TGI (CAKI-1 renal) was 45.5 µM.

With COC(=O)c1ccccc1C1CN=NC12Cc1c(ccc(C)c1C)C2=O (configuration not stated) the TGI (NCI/ADR-RES ovarian) was > 100 µM, the TGI (MDA-MB-231 breast) was > 100 µM and the TGI (SF-268 CNS) was > 100 µM. The TGI (IGROV1 ovarian) was > 100 µM, the TGI (HCT-15 colon) was > 100 µM and the TGI (K-562 leukemia) was > 100 µM. For the same molecule, the TGI (CAKI-1 renal) was > 100 µM.

CN(C)c1ccc(/C=C(\NC(=O)c2ccccc2)C(=O)NC(CC(=O)O)C(=O)O)cc1 (configuration not stated) was tested, and the TGI (NCI/ADR-RES ovarian) was > 100 µM, the TGI (MDA-MB-231 breast) was > 100 µM and the TGI (SF-268 CNS) was > 100 µM. For the same molecule, the TGI (SR leukemia) was > 100 µM, the TGI (IGROV1 ovarian) was > 100 µM and the TGI (HCT-15 colon) was > 100 µM. For the same molecule, the TGI (K-562 leukemia) was 33.3 µM and the TGI (CAKI-1 renal) was > 100 µM.

In the case of COc1ccc2nc(NC(=O)/C(C#N)=C/c3ccccc3)sc2c1, the TGI (NCI/ADR-RES ovarian) is reported as > 69.6 µM, the TGI (MDA-MB-231 breast) is reported as > 100 µM and the TGI (SF-268 CNS) is reported as > 100 µM. For the same molecule, the TGI (SR leukemia) was 21.9 µM, the TGI (IGROV1 ovarian) was > 86.3 µM and the TGI (HCT-15 colon) was > 100 µM. For the same molecule, the TGI (K-562 leukemia) was > 95.2 µM and the TGI (CAKI-1 renal) was > 100 µM.

With CN1CSC(=S)N(c2cccc(C(F)(F)F)c2)C1 the TGI (NCI/ADR-RES ovarian) was 73.4 µM, the TGI (SF-268 CNS) was 53 µM and the TGI (SR leukemia) was 52.5 µM. It also gave a TGI (IGROV1 ovarian) of 37.3 µM, a TGI (HCT-15 colon) of 38 µM and a TGI (K-562 leukemia) of 59.6 µM. It also gave a TGI (CAKI-1 renal) of 74 µM.

For Cc1ccc2cccc(-c3cccc4ccccc34)c2n1, the TGI (NCI/ADR-RES ovarian) was > 100 µM, the TGI (MDA-MB-231 breast) was 81 µM and the TGI (SF-268 CNS) was > 100 µM. The TGI (SR leukemia) was 35.8 µM, the TGI (IGROV1 ovarian) was > 100 µM and the TGI (HCT-15 colon) was 91.1 µM. The TGI (K-562 leukemia) was 21 µM and the TGI (CAKI-1 renal) was > 100 µM.

In the case of O=c1oc2ccccc2c(O)c1Cc1ccc(Cc2c(O)c3ccccc3oc2=O)cc1, the TGI (NCI/ADR-RES ovarian) is reported as > 100 µM, the TGI (MDA-MB-231 breast) is reported as > 100 µM and the TGI (SF-268 CNS) is reported as > 100 µM. The TGI (SR leukemia) was > 100 µM, the TGI (IGROV1 ovarian) was > 100 µM and the TGI (HCT-15 colon) was > 100 µM. The TGI (K-562 leukemia) was > 100 µM and the TGI (CAKI-1 renal) was > 100 µM.
